From patent US9630896B2, “2,5-dialkyl-4-H/halo/ether-phenol compounds” (Tansna Therapeutics Inc, priority 2013, dated 2017)

Legend:
[1] = tested on: minimal muscular or neurological impairment (rotorod); assay: Acute toxicity - minimal motor impairment (rotorod); format: in vivo; conditions: for Toxicity Ratio: Mouse
Excerpt: 4. Acute Toxicity-Minimal Motor Impairment
To assess a compound's undesirable side effects (toxicity), animals are monitored for overt signs of impaired neurological or muscular function. In mice, the rotorod (Dunham N W, Miya T S: A Note on a Simple Apparatus for Detecting Neurological Deficit in Rats and Mice. Journal of the American Pharmaceutical Association 1957; 46:208-09), procedure is used to disclose minimal muscular or neurological impairment. When a mouse is placed on a rod that rotates at a speed of 6 rpm, the animal can maintain its equilibrium for long periods of time. The animal is considered toxic if it falls off this rotating rod three times during a 1-min period. In rats, minimal motor deficit is indicated by ataxia, which is manifested by an abnormal, uncoordinated gait. Rats used for evaluating toxicity are examined before the test drug is administered, since individual animals may have peculiarities in gait, equilibrium, placing response, etc., which might be attributed erroneously to the test substance.

[2] = tested on: 6 Hz 32 mA Epilepsy Model (electrically induced psychomotor seizure); assay: Minimal clonic seizure (6 Hz, 32 mA) test; format: in vivo, Mouse; conditions: for animals protected/animals tested: 6 Hz 32 mA, Mouse, IP; for ED50: Mus musculus, ip, 6 Hz 32 mA dose response (Test 7-2), mice
Excerpt: (§1) 1. Minimal Clonic Seizure (6 Hz, 32 mA or 44 mA) Test
(§2) Test compounds are pre-administered to mice via i.p. injection. At varying times, individual mice (four per time point) are challenged with sufficient current delivered through corneal electrodes to elicit a psychomotor seizure in 97% of animals (32 mA or 44 mA for 3 s) (Toman J E P, Everett G M, Richards R K: The Search for New Drugs against Epilepsy. Texas Reports on Biology and Medicine 1952; 10:96-104). Untreated mice will display seizures characterized by a minimal clonic phase followed by stereotyped, automatistic behaviors described originally as being similar to the aura of human patients with partial seizures. Animals not displaying this behavior are considered protected. The test compounds are evaluated quantitatively by measuring the responses at varying doses at a determined time of peak effect (TPE).

[3] = tested on: MES Model (maximal electroshock seizure); assay: Maximal electroshock seizure (MES) test; format: in vivo; conditions: Mouse, IP
Description: 3. Maximal Electroshock Seizure (MES) Test
MES test is performed as in the Minimal Clonic Seizure (6 Hz) test, but the MES test utilizes a current of 50 mA (mice) or 150 mA (rats), frequency of 50-60 Hz, and a stimulation time of 0.2 seconds. Upon stimulation, untreated test subjects display immediate severe tonic seizure (including maximal extension of legs) and the body becomes stiffened for roughly 10-15 seconds. Next, clonic seizures start (including shaking of body and paddling movements of the hind limbs) and may last 20-30 seconds (Castel-Branco M M, Alves G L, Figueiredo I V, Falcao A C, Caramona M M: The Maximal Electroshock Seizure (MES) Model in the Preclinical Assessment of Potential New Antiepileptic Drugs. Methods and Findings in Experimental and Clinical Pharmacology 2009; 31:101-06). Test subjects that display reduced or eliminated symptoms of MES-type seizures during and/or after stimulation are considered protected.

[4] = tested on: Corneal Kindled Mouse (Stage 5 seizures); assay: Corneal kindled mouse (focal seizures) - Test 26; format: in vivo; conditions: IP, TPE 0.5 hrs
Excerpt: 2. Corneal Kindling (Focal Seizures)
Mice are kindled electrically with 3 sec stimulation, 8 mA, 60 Hz, and corneal electrodes to a criterion of 10 consecutive Stage 5 seizures (facial clonus and head nodding progressing to forelimb clonus, and finally rearing and falling accompanied by a generalized clonic seizure as described by Racine (Racine R J: Modification of Seizure Activity by Electrical Stimulation. II. Motor Seizure. Electroen Clin Neuro 1972; 32:281-94). Stage 5 is generally reached after twice daily stimulation for 8 days. With continued stimulation once a day, animals usually progress to a reproducible Stage 5 after 10-14 additional days. At least 72 hours after the mice have been kindled, the test substance is administered either intraperitoneal (i.p.) or per os (p.o.) and, at the previously determined TPE, each animal is given the electrical stimulus indicated above. Following stimulation, the animals are observed for the presence or absence of the rearing and falling criteria of a Stage 5 seizure. Treated animals not displaying a Stage 3, 4, or 5 seizure are considered protected. The dose of the test substance is varied between the limits of 0 and 100% efficacy, and the ED50 and 95% confidence intervals calculated by probit analysis. Mean values and the S.E.M. are calculated for the length of clonus and seizure duration and p values are determined by the Student's t-test.

[5] = tested on: 6 Hz 32 mA Epilepsy Model (electrically induced psychomotor seizure); assay: Minimal clonic seizure (6 Hz, 32 mA) test; format: in vivo; conditions: Mouse, Oral, 100 mg/kg, TPE N/A
[6] = tested on: 6 Hz 44 mA Epilepsy Model (electrically induced psychomotor seizure); assay: Minimal clonic seizure (6 Hz, 44 mA) test; format: in vivo; conditions: Mouse, IP, 100 mg/kg
Excerpt: as §1, §2

[7] = MES screen table, IP, 100 mg/kg, TPT N/A
[8] = Test 7-1 table, IP, 100 mg/kg, TPT N/A
[9] = Test 7-3 table, IP, 100 mg/kg, TPT N/A
[10] = Test 7-1 table, IP, 300 mg/kg, TPT 0.5 hrs
[11] = Test 7-1 table, IP, 30 mg/kg, TPT NA

Question: Which results are given for CC(C)c1cc(O)c(C(C)(C)C)cc1Br [Ex. 204, 4-Bromo-2-tert-butyl-5-isopropyl-phenol]?
Answer: Toxicity Ratio [1, 7]: 0/8; Toxicity Ratio [1, 8]: 0/4; animals protected/animals tested ([2]; 100 mg/kg, TPE 0.5 hrs): 2/4; animals protected/animals tested ([3]; 100 mg/kg, TPE 0.25 hrs): 1/4

Question: Which results are given for Cc1cc(Br)c(C(C)C)cc1O [Ex. 9, 4-bromo-5-isopropyl-2-methyl phenol]?
Answer: Toxicity Ratio [1, 7]: 0/8; Toxicity Ratio [1, 8]: 0/4; Toxicity Ratio ([1]; Test 7-1 table, Oral, 100 mg/kg, TPT N/A): 0/4; TD50 at 6 hrs ([1]; mouse, in vivo, intraperitoneal, Test 7-2 table, TPT 6 hrs): 398 mg/kg; animals protected/animals tested ([2]; 100 mg/kg, TPE 0.5 hrs): 3/4; ED50 ([2]; TPE 0.5 hrs): 19 mg/kg; Average Seizure Score ([4]; 19 mg/kg): 3.75; Seizure Ratio ([4]; 19 mg/kg): 1/4; animals protected/animals tested [5]: 0/4; animals protected/animals tested ([3]; 100 mg/kg, TPE 0.25 hrs): 1/4

Question: What does the source list for Cc1cc(O)c(C(C)C)cc1Br [Ex. 132, 4-Bromo-2-isopropyl-5-methyl-phenol]?
Answer: Toxicity Ratio ([1]; MES screen table, IP, 100 mg/kg, TPT 0.5 hrs): 1/8; Toxicity Ratio [1, 8]: 0/4; Toxicity Ratio [1, 9]: 0/4; TD50 at 4 hrs ([1]; mouse, in vivo, intraperitoneal, Test 7-2 table, TPT 4 hrs): > 200 mg/kg; animals protected/animals tested ([2]; 100 mg/kg, TPE 0.5 hrs): 3/4; ED50 ([2]; TPE 0.5 hrs): 28 mg/kg; Average Seizure Score ([4]; 28 mg/kg): 4.5; Seizure Ratio ([4]; 28 mg/kg): 1/4; animals protected/animals tested ([6]; TPE 2 hrs): 2/4; animals protected/animals tested ([3]; 100 mg/kg, TPE 1 hrs): 2/4

Question: With CCCc1ccc(C(C)C)cc1O [Ex. 95, 5-Isopropyl-2-propyl-phenol] as the compound, how does the “Toxicity Ratio” value ([1]; Test 7-1 table, IP, 10 mg/kg, TPT 0.5 hrs) read?
Answer: The value was 1/8.

Question: And the “Toxicity Ratio” value ([1]; Test 7-1 table, IP, 30 mg/kg, TPT 0.5 hrs)?
Answer: The value was 0/8.

Question: What about the “Toxicity Ratio” value [1, 10] of the same compound?
Answer: Its value is 3/8.

Question: What about the animals protected/animals tested ([2]; 10 mg/kg, TPE 0.5 hrs) of the same compound?
Answer: Its animals protected/animals tested is 3/4.

Question: And the animals protected/animals tested ([2]; 30 mg/kg, TPE 0.5 hrs)?
Answer: Its animals protected/animals tested is 0/4.

Question: And the animals protected/animals tested ([2]; 300 mg/kg, TPE 0.5 hrs)?
Answer: The animals protected/animals tested was 3/4.

Question: And the animals protected/animals tested ([3]; 30 mg/kg, TPE 0.5 hrs)?
Answer: The animals protected/animals tested was 0/4.

Question: And the animals protected/animals tested ([3]; 100 mg/kg, TPE 0.5 hrs)?
Answer: Its animals protected/animals tested is 0/4.

Question: What about the animals protected/animals tested ([3]; 300 mg/kg, TPE 0.5 hrs) of the same compound?
Answer: Its animals protected/animals tested is 1/4.

Question: Which results are given for Cc1cc(Br)c(C(C)(C)C)cc1O [Ex. 25, 4-Bromo-5-tert-butyl-2-methyl-phenol]?
Answer: Toxicity Ratio [1, 11]: 0/8; Toxicity Ratio [1, 8]: 0/8; Toxicity Ratio [1, 10]: 4/8; animals protected/animals tested ([2]; 30 mg/kg, TPE 0.5 hrs): 2/4; animals protected/animals tested ([2]; 100 mg/kg, TPE 0.5 hrs): 2/4; animals protected/animals tested ([2]; 300 mg/kg, TPE 2 hrs): 4/4

Question: How did the “Toxicity Ratio” value ([1]; MES screen table, IP, 30 mg/kg, TPT NA) turn out when CCc1cc(Br)c(C(C)C)cc1O [Ex. 64, 4-Bromo-2-ethyl-5-isopropyl-phenol] was run?
Answer: Its value is 0/8.

Question: What about the “Toxicity Ratio” value [1, 7] of the same compound?
Answer: Its value is 0/8.

Question: What about the “Toxicity Ratio” value ([1]; MES screen table, IP, 300 mg/kg, TPT 0.5 hrs) of the same compound?
Answer: The value was 6/8.

Question: What about the “Toxicity Ratio” value [1, 11] of the same compound?
Answer: Its value is 0/8.

Question: And the “Toxicity Ratio” value [1, 8]?
Answer: The value was 0/8.

Question: And the “Toxicity Ratio” value [1, 10]?
Answer: Its value is 6/8.

Question: And the “Toxicity Ratio” value [1, 9]?
Answer: The value was 0/4.

Question: What about the animals protected/animals tested ([2]; 30 mg/kg, TPE 0.5 hrs) of the same compound?
Answer: The animals protected/animals tested was 1/4.

Question: What about the animals protected/animals tested ([2]; 100 mg/kg, TPE 0.5 hrs) of the same compound?
Answer: The animals protected/animals tested was 3/4.

Question: What about the animals protected/animals tested ([2]; 300 mg/kg, TPE 0.5 hrs) of the same compound?
Answer: The animals protected/animals tested was 4/4.

Question: And the animals protected/animals tested ([6]; TPE 0.25 hrs)?
Answer: Its animals protected/animals tested is 1/4.

Question: And the animals protected/animals tested ([3]; 30 mg/kg, TPE NA)?
Answer: The animals protected/animals tested was 0/4.

Question: And the animals protected/animals tested ([3]; 100 mg/kg, TPE 0.5 hrs)?
Answer: Its animals protected/animals tested is 1/4.

Question: What about the animals protected/animals tested ([3]; 300 mg/kg, TPE 0.5 hrs) of the same compound?
Answer: The animals protected/animals tested was 2/4.
